In patent US20080255186A1, “Pyrazolo[3,4-B]Pyridine Compound, and Its Use as a Pde4 Inhibitor” (priority 2005, published 2008):

Biological target: T1, PDE6 (from bovine retina) (Bos taurus, UniProt P11541+P23439)
T1 construct: PDE6 can be purified from bovine retina; from tissue; host or cells: bovine retina
T1 sequence (P11541 2-856 limits assumed): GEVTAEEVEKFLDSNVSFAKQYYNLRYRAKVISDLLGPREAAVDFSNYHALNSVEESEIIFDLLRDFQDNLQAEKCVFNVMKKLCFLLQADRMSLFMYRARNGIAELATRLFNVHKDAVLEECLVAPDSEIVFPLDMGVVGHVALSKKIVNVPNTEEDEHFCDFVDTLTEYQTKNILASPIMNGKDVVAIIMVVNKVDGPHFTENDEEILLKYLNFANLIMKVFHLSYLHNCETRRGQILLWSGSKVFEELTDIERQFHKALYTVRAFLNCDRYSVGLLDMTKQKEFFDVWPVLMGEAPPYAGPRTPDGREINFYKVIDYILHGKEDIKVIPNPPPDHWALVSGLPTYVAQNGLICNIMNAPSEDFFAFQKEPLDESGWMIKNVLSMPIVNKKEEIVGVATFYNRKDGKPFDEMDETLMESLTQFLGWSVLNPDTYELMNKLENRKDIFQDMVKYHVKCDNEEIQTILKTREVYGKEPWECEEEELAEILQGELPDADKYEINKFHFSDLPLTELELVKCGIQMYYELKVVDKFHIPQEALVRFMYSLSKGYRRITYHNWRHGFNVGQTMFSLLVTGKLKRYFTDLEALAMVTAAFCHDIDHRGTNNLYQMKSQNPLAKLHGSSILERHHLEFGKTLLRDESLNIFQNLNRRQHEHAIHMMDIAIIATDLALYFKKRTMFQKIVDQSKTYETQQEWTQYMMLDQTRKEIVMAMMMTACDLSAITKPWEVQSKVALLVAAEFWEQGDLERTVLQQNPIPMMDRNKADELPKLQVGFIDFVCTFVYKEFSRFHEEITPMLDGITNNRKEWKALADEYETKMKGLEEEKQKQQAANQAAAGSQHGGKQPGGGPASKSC
T1 sequence (P23439 2-850 limits assumed): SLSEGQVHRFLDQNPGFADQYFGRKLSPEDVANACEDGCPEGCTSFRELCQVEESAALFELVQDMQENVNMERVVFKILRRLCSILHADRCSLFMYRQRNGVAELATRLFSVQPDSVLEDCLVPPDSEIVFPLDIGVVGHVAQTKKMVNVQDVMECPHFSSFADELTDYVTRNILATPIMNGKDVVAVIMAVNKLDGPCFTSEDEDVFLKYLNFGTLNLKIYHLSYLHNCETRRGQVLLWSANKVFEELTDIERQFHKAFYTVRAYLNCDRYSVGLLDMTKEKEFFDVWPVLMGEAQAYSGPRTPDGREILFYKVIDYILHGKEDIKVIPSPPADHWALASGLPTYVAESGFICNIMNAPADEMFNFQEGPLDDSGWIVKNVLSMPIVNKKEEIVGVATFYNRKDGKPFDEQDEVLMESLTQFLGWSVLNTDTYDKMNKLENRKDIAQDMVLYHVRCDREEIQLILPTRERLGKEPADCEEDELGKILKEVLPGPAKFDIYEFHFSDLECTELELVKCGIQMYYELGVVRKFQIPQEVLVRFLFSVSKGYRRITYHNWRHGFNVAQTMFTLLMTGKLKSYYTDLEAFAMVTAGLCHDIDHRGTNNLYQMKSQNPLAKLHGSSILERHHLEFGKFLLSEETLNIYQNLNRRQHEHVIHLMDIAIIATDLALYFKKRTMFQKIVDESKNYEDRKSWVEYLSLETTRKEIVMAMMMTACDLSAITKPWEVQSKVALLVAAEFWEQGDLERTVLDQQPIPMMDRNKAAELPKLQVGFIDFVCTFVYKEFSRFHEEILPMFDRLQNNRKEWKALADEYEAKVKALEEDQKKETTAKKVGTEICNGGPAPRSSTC
Assay: PDE6 inhibition (FP or SPA general type of assay)
Type: biochemical
Settings: in the particular assays used
From the text: PDE6 can be purified from bovine retina as described by: P. Catty and P. Deterre, “Activation and solubilization of the retinal cGMP-specific phosphodiesterase by limited proteolysis”, Eur. J. Biochem., 1991, 199, 263-269; A. Tar et al. “Purification of bovine retinal cGMP phosphodiesterase”, Methods in Enzymology, 1994, 238, 3-12; and/or D. Srivastava et al. “Effects of magnesium on cyclic GMP hydrolysis by the bovine retinal rod cyclic GMP phosphodiesterase”, Biochem. J., 1995, 308, 653-658.
The ability of compounds to inhibit catalytic activity at PDE4B or 4D (human recombinant), PDE3 (from bovine aorta), PDE5 (human recombinant) or PDE6 (from bovine retina) can optionally be determined by Scintillation Proximity Assay (SPA) in a 96-well format.
Test compounds (as a solution in DMSO, suitably about 2 microlitre (ul) volume of DMSO solution) are preincubated at ambient temperature (room temperature, e.g. 19-23° C.) in Wallac Isoplates (code 1450-514) with PDE enzyme in 50 mM Tris-HCl buffer pH 7.5, 8.3 mM MgCl2, 1.7 mM EGTA, 0.05% (w/v) bovine serum albumin for 10-30 minutes (usually 30 minutes). […] Bound radioactive product is measured using a WALLAC TRILUX 1450 Microbeta scintillation counter. […] Curves are analysed using ActivityBase and XLfit (ID Business Solutions Limited, 2 Ocean Court, Surrey Research Park, Guildford, Surrey GU2 7QB, United Kingdom). […]

CCc1nc2c(cnn2CC)c(NC2CCOCC2)c1CNC(=O)c1cc(C)no1 [Example 1, N-{[1,6-diethyl-4-(tetrahydro-2H-pyran-4-ylamino)-1H-pyrazolo[3,4-b]pyridin-5-yl]methyl}-3-methyl-5-isoxazolecarboxamide]
PDE4B pIC50 compared with PDE6 pIC50 (selectivity): inhibits PDE4B more strongly than it inhibits PDE3, PDE5 and PDE6
